From patent US20200022998A1, “MEDICAL USE OF NOTCH4 OR INHIBITORS THEREOF” (BEIJING INSTITUTE OF GENOMICS, CHINESE ACADEMY OF SCIENCES, priority 2016, published 2020) come the findings set out here.

Common to all, as to assay type: cell-based, human
Test [1] has as its system iPSCs-derived CD34+ cells. In words: polyploid detection, iPSC-derived CD34+ cells. Particulars: 10 μM; Notch inhibitor added since Day 5; DMSO about 18%; FIG. 17. How it is done: iPSC-derived CD34^+ cells (prepared by the method as described in Example 3-2) and umbilical cord blood-derived CD34^+ cells were seeded at 1*10^6 cells per well to 4 ml StemSpan™ SFEM 11+50 ng/ml SCF+50 ng/ml TPO+50 ng/ml IL-6+20 ng/ml IL-3, in a 12-well plate, with 1 ml medium for each well, and 3 wells in total for each cell line, […] The liquid was changed every 3 days, and the culture condition was 37° C., 5% CO2. After iPSC-derived CD34^+ cells were incubated for 6 days, and umbilical cord blood-derived CD34^+ cells were incubated for 9 days, the following experiment was carried out.
(§1) Cells were labeled with CD61-FITC flow cytometric antibody at 4° C. for 30 min. The cells were washed with PBS once, and fixed with 70% ethanol at 4° C. overnight. At the second day, the cells were washed with PBS once. After centriguation, 1 ml PBE (PBS containing 2% serum) +100 μg/ml RNase A +50 μg/ml Propidium Iodide, was added, and incubation was carried out in dark at room temperature for 30 min. The cells were washed with PBS once, and the number of cells (≥8N) in CD61^+ cell population was determined by flow cytometry.

The test system of test [2] is umbilical cord blood-derived CD34+ cells. Put plainly: polyploid detection, umbilical cord blood-derived CD34+ cells. The conditions noted are these: 10 μM; DMSO about 16%; FIG. 18. How it is done: (§2) iPSC-derived CD34^+ cells (prepared by the method as described in Example 3-2) and umbilical cord blood-derived CD34^+ cells were seeded at 1*10^6 cells per well to 4 ml StemSpan™ SFEM 11+50 ng/ml SCF+50 ng/ml TPO+50 ng/ml IL-6+20 ng/ml IL-3, in a 12-well plate, with 1 ml medium for each well, and 3 wells in total for each cell line, to which 10 μM RO4929097, 10 μM DAPT, and the same volume of DMSO as control, were added, respectively, and the time was recorded as Day 0. The liquid was changed every 3 days, and the culture condition was 37° C., 5% CO2. After iPSC-derived CD34^+ cells were incubated for 6 days, and umbilical cord blood-derived CD34^+ cells were incubated for 9 days, the following experiment was carried out.
as §1

The subject of test [3] is iPSCs-derived CD34+ cells. In words: proplatelet formation, iPSC-derived CD34+ cells. The conditions noted are these: 10 μM; DMSO about 47%; FIG. 19D. On the procedure: as §2
(§3) Proplatelet formation of MKs referred to mature megakaryocytes, which extended long and branched filaments and cytoplasmic protrusions.

Test [4] concerns umbilical cord blood-derived CD34+ cells. In words: proplatelet formation, umbilical cord blood-derived CD34+ cells. The conditions noted are these: 10 μM; DMSO about 44%; FIG. 20D. On the procedure: as §2, §3

Take `C[C@H](NC(=O)Cc1cc(F)cc(F)c1)C(=O)N[C@H](C(=O)OC(C)(C)C)c1ccccc1` [DAPT]: the “proportion of polyploid megakaryocytes (≥8N) in CD61+ megakaryocytes” value in test [1] is around 21%; in test [2] it was around 12%. Also, the “proportion of proplatelet-bearing MKs in 100 differentiated cells” value in test [3] was around 50%; in test [4], around 42%.

In the case of `CC(C)(C(=O)NCC(F)(F)C(F)(F)F)C(=O)N[C@@H]1C(=O)Nc2ccccc2-c2ccccc21` [RO4929097], the “proportion of polyploid megakaryocytes (≥8N) in CD61+ megakaryocytes” value was “about 17%” in test [1] and “about 15%” in test [2]. Moreover, the entries for the “proportion of proplatelet-bearing MKs in 100 differentiated cells” value in test [3] and in test [4] were “about 46%” and “about 40%”, respectively.
